Test results as given in BindingDB's records for doi:10.7270/Q2H70D5W (University of Pittsburgh, 2007).

Molecular target: Gag-Pol polyprotein (Human immunodeficiency virus type 1 group M subtype B (isolate HXB2), UniProt P04585)
Test: concentration-response of HIV-1 RNase H blockers – biochemical, probe assessment, dose response (AID 652)
Conditions: pH 8; 23 °C

COC(=O)c1ccccc1NC(=O)c1sc(=S)n(C)c1N [2-[(4-amino-3-methyl-2-thioxo-4-thiazoline-5-carbonyl)amino]benzoic acid methyl ester]
IC50: 4.43 µM
